# Assay results reported in patent US20260001928A1 (CORTERIA PHARMACEUTICALS, priority 2022, published 2026).
# *1 amine or outer side, *2 acyl side, *3 side chain or, on linkers, in order; H or OH if unused. Where a SMILES comes first, the peptide text is derived from it. Side-chain parts run from the residue outwards. [ ]: non-standard residue; d: D form. The star is where a group is joined. C18 diacid = O=C(O)CCCCCCCCCCCCCCCCC(=O)*; C16 diacid = O=C(O)CCCCCCCCCCCCCCC(=O)*; γGlu = O=C(O)[C@H](CCC(=O)[*:2])N[*:1]; NMeI = CC[C@H](C)[C@H](NC)C(=O)O; αMeK = C[C@](N)(CCCCN)C(=O)O; Abu = CC[C@H](N)C(=O)O; AEEA = NCCOCCOCC(=O)O; Aib = CC(C)(N)C(=O)O
# Key:
# [1] = molecular target: T1, human CRF2a receptor (Homo sapiens, UniProt Q13324); assay: Activity at human CRF2a receptor, cAMP functional assay in TeloHEAC cells; format: cell-based; settings: TeloHEAC cells stably expressing human CRF2a receptor, relative to urocortin 2 (100 nM = 100%)
# T1 construct: expressed in transfected cells; host or cells: TeloHEAC cells
# T1 sequence (Q13324 1-411): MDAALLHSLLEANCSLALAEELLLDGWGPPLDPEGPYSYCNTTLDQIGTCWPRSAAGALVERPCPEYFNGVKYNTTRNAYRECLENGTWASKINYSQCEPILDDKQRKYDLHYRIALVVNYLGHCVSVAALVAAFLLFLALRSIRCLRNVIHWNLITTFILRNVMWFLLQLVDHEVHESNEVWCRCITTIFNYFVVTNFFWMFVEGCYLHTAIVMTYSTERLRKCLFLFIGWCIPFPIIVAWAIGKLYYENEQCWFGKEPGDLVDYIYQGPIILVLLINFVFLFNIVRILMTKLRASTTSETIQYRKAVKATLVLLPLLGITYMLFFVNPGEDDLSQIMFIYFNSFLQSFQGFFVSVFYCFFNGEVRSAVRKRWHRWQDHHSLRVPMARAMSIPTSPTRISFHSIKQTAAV
# In short: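 TeloHEAC cells stably expressing human CRF2a (10000 cells/well, suspended in HBSS/20 mM HEPES with 2 mM IBMX) were exposed to compounds for 30 min at 37 °C. cAMP was read as the 665/620 nm fluorescence ratio after 1 h at room temperature. EC50 was derived relative to 100 nM urocortin 2, set as 100%.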
# [2] = molecular target: T2, CFR1R receptor (Homo sapiens, UniProt P34998); assay: Activity at anti-target CFR1R receptor, cAMP assay in CRF1R-overexpression CHO-K1 cells; format: cell-based; settings: 100% = Sauvagine at 100 nM; for EC50: cAMP
# T2 construct: host or cells: CHO-K1 (clone 2)
# T2 sequence (P34998 24-415): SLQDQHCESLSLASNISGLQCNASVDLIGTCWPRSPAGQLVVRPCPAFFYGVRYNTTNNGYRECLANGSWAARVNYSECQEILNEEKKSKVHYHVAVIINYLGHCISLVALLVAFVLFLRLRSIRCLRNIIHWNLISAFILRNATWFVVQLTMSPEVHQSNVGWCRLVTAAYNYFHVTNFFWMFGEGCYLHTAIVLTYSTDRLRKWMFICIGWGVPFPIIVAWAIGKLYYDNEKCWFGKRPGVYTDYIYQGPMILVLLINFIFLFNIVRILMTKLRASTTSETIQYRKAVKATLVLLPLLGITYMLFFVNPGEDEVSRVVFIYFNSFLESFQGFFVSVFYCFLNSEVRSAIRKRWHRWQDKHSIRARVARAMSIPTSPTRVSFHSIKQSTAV
# In short: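 Run as for the TeloHAEC line, except the full-activation control well received Sauvagine (100 nM) and final density was 4000 cells/well. Cells from clone 2 came from frozen aliquots of near-confluent cultures.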
# [3] = Chemical stability in buffer (pH 7.4 / pH 4.5), % purity loss; format: physicochemical; settings: 40° C. vs 5° C., 14 or 28 days; for Buffer stability pH 4.5 % purity loss: 100 mM acetate buffer pH 4.5; for Buffer stability pH 7.4 % purity loss: 100 mM phosphate buffer pH 7.4
# Method: Solubility and chemical stability were studied in 100 mM phosphate buffer (pH 7.4) and 100 mM acetate buffer (pH 4.5). Test compound powders were dissolved in both buffers at a target concentration of 10 mg/mL and incubated for 1 hour at room temperature. After centrifugation at 2500 rcf for 15 minutes, 10 μL of supernatant was diluted with 190 μL of the incubation buffer and analyzed by LC-UV (Acquity UPLC-DAD, Waters). Solubility was calculated by comparing the peak area of the test compound in the buffer sample with the peak area of the same compound dissolved at 0.5 mg/mL in water:acetonitrile 1:1, 0.1% formic acid.
# From the centrifuged supernatant, two additional 80 μL aliquots were collected and diluted with 160 μL of incubation buffer. One aliquot was stored at 5° C., while the other was stored at 40° C. After 14 or 28 days, the samples were analyzed by LC-UV. Chemical stability was calculated as % loss using the following equations: […]
# [4] = test system: Sprague Dawley rats; assay: Effect on systolic blood pressure, telemetry in Sprague Dawley rats; format: in vivo, rat; settings: 0.1 mg/kg SC
# Method: The effect of the compounds on systolic blood pressure was determined in telemetry studies in Sprague Dawley rats at a dosage of 0.1 mg/kg SC.
# The rats were previously implanted with a telemetry device (DSI, Saint-Paul, USA, HD-S10, HD-S11 or HD S21) and allowed to recover for a minimum period of 2 weeks before treatment with vehicle or the different peptides. Blood pressure (BP) was recorded through a catheter inserted into the abdominal aorta. The device body was placed in the abdomen. The animals were allowed to recover from surgery for at least 10 days before the first administration of test drug or vehicle.
# The chronically instrumented rats of the telemetry studies were individually housed immediately after surgery and then housed in pairs with a non-instrumented companion after recovery.
# Systolic blood pressure was recorded for one hour before treatment (basal period). Thereafter, the subcutaneous administration of the test compound or its vehicle was performed, under continuous recording of the signal up to 48 hours, analysed and expressed as % change from baseline.
# Representative data are presented in Table 13 below, in which “Duration of action” indicates the last time point for which an effect on BP was still observed (n=2 animals/peptide)
compound,measurement,setting,value
CC[C@H](C)[C@H](NC)C(=O)N[C@H](C(=O)N[C@@H](CC(C)C)C(=O)N[C@@H](CO)C(=O)N[C@@H](CC(C)C)C(=O)N[C@@H](CC(=O)O)C(=O)N[C@@H](C(=O)N1CCC[C@H]1C(=O)N[C@H](C(=O)N[C@@H](CCCCN)C(=O)N[C@@H](CC(C)C)C(=O)N[C@@H](CCCCNC(=O)CC[C@H](NC(=O)CCCCCCCCCCCCCCC(=O)O)C(=O)O)C(=O)N[C@@H](CCCCN)C(=O)N[C@H](C(=O)N[C@@H](CC(C)C)C(=O)N[C@@H](CC(C)C)C(=O)N[C@@H](CCC(=O)O)C(=O)N[C@@H](CCC(N)=O)C(=O)N[C@@H](CCC(=O)O)C(=O)N[C@@H](CCCCN)C(=O)N[C@@H](CCC(N)=O)C(=O)N[C@@H](CCCCN)C(=O)N[C@@H](CCCCN)C(=O)N[C@@H](CCC(N)=O)C(=O)N[C@@H](CCCNC(=N)N)C(=O)N[C@@H](CCC(=O)O)C(=O)N[C@@H](CCC(N)=O)C(=O)N[C@@H](C)C(=O)N[C@@H](CCC(=O)O)C(=O)N[C@H](C(=O)N[C@@H](CC(N)=O)C(=O)NC(C)(C)C(=O)N[C@@H](CCC(N)=O)C(=O)N[C@H](C(=O)N[C@@H](CC(C)C)C(=O)N[C@@H](C)C(=O)N[C@@H](CCC(N)=O)C(=O)N[C@H](C(N)=O)C(C)C)[C@@H](C)CC)[C@@H](C)O)[C@@H](C)CC)[C@@H](C)CC)C(C)C)C(C)C [compound 64] (H-[NMeI]VLSLD[dV]PIKLK([γGlu-C16 diacid])KILLEQEKQKKQREQAETN[Aib]QILAQV-NH2),EC50,[1],0.19 nM
same,Emax (% I),[2],4 % I
same,EC50,[2],> 250 nM
same,Buffer stability pH 4.5 % purity loss,[3],nd/0 ^ %
same,"Systolic blood pressure (Mean) % change from baseline, 8 h","[4]; 8 h, n=2",−25%
same,"Systolic blood pressure (Mean) % change from baseline, 12 h","[4]; 12 h, n=2",−13%
same,"Systolic blood pressure (Mean) % change from baseline, 24 h","[4]; 24 h, n=2",3%
same,Duration of action,[4]; last time point with an effect on BP still observed,23 h
CC[C@H](NC(=O)[C@H](CC(N)=O)NC(=O)[C@@H](NC(=O)[C@H](CCC(=O)O)NC(=O)[C@H](C)NC(=O)[C@H](CCC(N)=O)NC(=O)[C@H](CCC(=O)O)NC(=O)[C@H](CCCNC(=N)N)NC(=O)[C@H](CCC(N)=O)NC(=O)[C@H](CCCCN)NC(=O)[C@H](CCCCN)NC(=O)[C@H](CCC(N)=O)NC(=O)[C@H](CCCCN)NC(=O)[C@H](CCC(=O)O)NC(=O)[C@H](CCC(N)=O)NC(=O)[C@H](CCC(=O)O)NC(=O)[C@H](CC(C)C)NC(=O)[C@H](CC(C)C)NC(=O)[C@@H](NC(=O)[C@H](CCCCN)NC(=O)[C@H](CCCCNC(=O)COCCOCCNC(=O)COCCOCCNC(=O)CC[C@H](NC(=O)CCCCCCCCCCCCCCCCC(=O)O)C(=O)O)NC(=O)[C@H](CC(C)C)NC(=O)[C@H](CCCCN)NC(=O)[C@@H](NC(=O)[C@@H]1CCCN1C(=O)[C@H](NC(=O)[C@H](CC(=O)O)NC(=O)[C@H](CC(C)C)NC(=O)[C@H](CO)NC(=O)[C@H](CC(C)C)NC(=O)[C@@H](NC(=O)[C@@H](NC(C)=O)[C@@H](C)CC)C(C)C)C(C)C)[C@@H](C)CC)[C@@H](C)CC)[C@@H](C)O)C(=O)N[C@@H](CCC(N)=O)C(=O)N[C@H](C(=O)N[C@@H](CC(C)C)C(=O)N[C@@H](C)C(=O)N[C@@H](CCC(N)=O)C(=O)N[C@H](C(N)=O)C(C)C)[C@@H](C)CC [compound 104] (Ac-IVLSLD[dV]PIKLK([AEEA-AEEA-γGlu-C18 diacid])KILLEQEKQKKQREQAETN[Abu]QILAQV-NH2),EC50,[1],0.47 nM
same,Emax (% I),[2],5 % I
same,EC50,[2],> 250 nM
same,Buffer stability pH 4.5 % purity loss,[3],0/0 ^ %
same,Buffer stability pH 7.4 % purity loss,[3],0/0 ^ %
CC[C@H](C)[C@H](NC(C)=O)C(=O)N[C@H](C(=O)N[C@@H](CC(C)C)C(=O)N[C@@H](CO)C(=O)N[C@@H](CC(C)C)C(=O)N[C@@H](CC(=O)O)C(=O)N[C@@H](C(=O)N1CCC[C@H]1C(=O)N[C@H](C(=O)N[C@@H](CCCCN)C(=O)N[C@@H](CC(C)C)C(=O)N[C@@H](CCCCNC(=O)CC[C@H](NC(=O)CCCCCCCCCCCCCCC(=O)O)C(=O)O)C(=O)N[C@@H](CCCCN)C(=O)N[C@H](C(=O)N[C@@H](CC(C)C)C(=O)N[C@@H](CC(C)C)C(=O)N[C@@H](CCC(=O)O)C(=O)N[C@@H](CCC(N)=O)C(=O)N[C@@H](CCC(=O)O)C(=O)N[C@@H](CCCCN)C(=O)N[C@@H](CCC(N)=O)C(=O)N[C@@H](CCCCN)C(=O)N[C@@H](CCCCN)C(=O)N[C@@H](CCC(N)=O)C(=O)N[C@@H](CCCNC(=N)N)C(=O)N[C@@H](CCC(=O)O)C(=O)N[C@@H](CCC(N)=O)C(=O)N[C@@H](C)C(=O)N[C@@H](CCC(=O)O)C(=O)N[C@H](C(=O)N[C@@H](CC(N)=O)C(=O)N[C@@](C)(CCCCN)C(=O)N[C@@H](CCC(N)=O)C(=O)N[C@H](C(=O)N[C@@H](CC(C)C)C(=O)N[C@@H](C)C(=O)N[C@@H](CCC(N)=O)C(=O)N[C@H](C(N)=O)C(C)C)[C@@H](C)CC)[C@@H](C)O)[C@@H](C)CC)[C@@H](C)CC)C(C)C)C(C)C [compound 54] (Ac-IVLSLD[dV]PIKLK([γGlu-C16 diacid])KILLEQEKQKKQREQAETN[αMeK]QILAQV-NH2),EC50,[1],0.12 nM
same,Emax (% I),[2],20 % I
same,EC50,[2],> 250 nM
same,Buffer stability pH 4.5 % purity loss,[3],nd/0 ^ %
CC[C@H](C)[C@H](NC(=O)[C@H](CCC(N)=O)NC(=O)[C@H](CCCCN)NC(=O)[C@H](CC(N)=O)NC(=O)[C@@H](NC(=O)[C@H](CCC(=O)O)NC(=O)[C@H](C)NC(=O)[C@H](CCC(N)=O)NC(=O)[C@H](CCC(=O)O)NC(=O)[C@H](CCCNC(=N)N)NC(=O)[C@H](CCC(N)=O)NC(=O)[C@H](CCCCN)NC(=O)[C@H](CCCCN)NC(=O)[C@H](CCC(N)=O)NC(=O)[C@H](CCCCN)NC(=O)[C@H](CCC(=O)O)NC(=O)[C@H](CCC(N)=O)NC(=O)[C@H](CCC(=O)O)NC(=O)[C@H](CC(C)C)NC(=O)[C@H](CC(C)C)NC(=O)[C@@H](NC(=O)[C@H](CCCCN)NC(=O)[C@H](CCCCNC(=O)COCCOCCNC(=O)COCCOCCNC(=O)CC[C@H](NC(=O)CCCCCCCCCCCCCCCCC(=O)O)C(=O)O)NC(=O)[C@H](CC(C)C)NC(=O)[C@H](CCCCN)NC(=O)[C@@H](NC(=O)[C@@H]1CCCN1C(=O)[C@H](NC(=O)[C@H](CC(=O)O)NC(=O)[C@H](CC(C)C)NC(=O)[C@H](CO)NC(=O)[C@H](CC(C)C)NC(=O)[C@@H](N)C(C)C)C(C)C)[C@@H](C)CC)[C@@H](C)CC)[C@@H](C)O)C(=O)N[C@@H](CC(C)C)C(=O)N[C@@H](C)C(=O)N[C@@H](CCC(N)=O)C(=O)N[C@H](C(N)=O)C(C)C [compound 93] (H-VLSLD[dV]PIKLK([AEEA-AEEA-γGlu-C18 diacid])KILLEQEKQKKQREQAETNKQILAQV-NH2),EC50,[1],5.08 nM
same,Emax (% I),[2],6 % I
same,EC50,[2],> 250 nM
same,Buffer stability pH 4.5 % purity loss,[3],0%
same,Buffer stability pH 7.4 % purity loss,[3],19%
